# Test results as given in US11857601B2, “Pharmaceutical composition for cancer treatment comprising fusion protein including IL-2 protein and CD80 protein and anticancer drug” (GI INNOVATION, INC., priority 2020, dated 2024).
# How the values were obtained:
# MC38 cells = assay: mGI-101 and DMXAA in MC38 allotransplanted tumor model; type: in vivo, C57BL/6 mice; details: day 60 after tumor injection; mGI-101 6 mg/kg i.p. BIW, DMXAA 450 μg I.T.; 5 mice per group
# Protocol: In order to establish an allotransplanted tumor model, 5×10^5 of MC38 cells were subcutaneously injected into C57BL/6 mice. The tumor grafts of the mice were identified to be a size of 100-200 mm^3 about day 10 after cell inoculation, and the mice were assigned, each group including 5 mice.
# The size of the MC38 solid cancer was measured three times a week during the observation period, and the major axis (maximum length, L) and minor axis (perpendicular width, W) of the tumor were measured using a caliper, and the tumor volume (TV) was calculated by substituting them into the following equation, and once the tumor size was no less than 2 cm, the mice were sacrificed. TV (mm^3)=(W^2×L)/2 [Equation 1]
# MDA-MB-231 cells = assay: Cancer cell killing, GI-101 and Ribociclib, MDA-MB-231 with PBMCs; type: cell-based, human; details: GI-101 100 nM, Ribociclib 913 nM, 24 hours, compared with co-culturing only cancer cells and PBMCs
# Description: This experiment was to evaluate the effect of killing cancer cells by treating MDA-MB-231 cells (human breast cancer cells) with the test substance GI-101 alone or in combination with Ribociclib substance in an in vitro environment.
# (§1) MDA-MB-231 cells were purchased from the Korea cell line bank and cultured in RPMI1640 medium (Gibco) containing 10% FBS (Gibco) and 1% antibiotic/antifungal agent (Gibco). For use in cancer cell killing test, the cells were harvested using trypsin (Gibco), and then suspended in RPMI1640 medium, and then dead cells and debris were removed using Ficoll (GE Healthcare Life Sciences) solution. The cells suspended in RPMI1640 medium were carefully layered on ficoll solution. […]
# (§2) In order to identify the effect of killing the cells, a CytoTox Green reagent ([…]™ CytoTox Green, Satorius) that binds to the DNA of cells to be killed was prepared in 1 μl per 1 mL of RPMI1640 medium containing 5% human AB serum (Sigma). The prepared medium was used for dilution of the test substance, and the effect of killing the cells could be quantitatively identified by staining the cells to be killed when the test substance was co-cultured with cancer cell lines and PBMCs. […]
# 4T1 cells [1] = assay: mGI-101, anti-PD-L1 antibody and Docetaxel in 4T1 allotransplanted tumor model; type: in vivo, BALB/c mice
# Description: This experiment was to evaluate the anticancer efficacy according to administration of the test substance mGI-101 alone or in combination with Docetaxel (Selleck Chemicals, cat. no. S1148) and the anti-PD-L1 antibody (BioXcell, cat. no. BE0101) in a tumor model allotransplanted with 4T1 cells (mouse breast cancer cells) into BALB/c mice.
# 4T1 cells were purchased from ATCC (USA) and cultured in RPMI1640 medium (Gibco) containing 10% FBS (Gibco) and 1% antibiotic/antifungal agent (Gibco). The cultured cells were harvested using trypsin (Gibco), and then a cell suspension was prepare with PBS and stored on ice until injected into mice. In order to establish an allotransplanted tumor model, after identifying the location of the second mammary fat pad from the upper right of the ventral region of BALB/c female mice (8-week-old), 4T1 cell line prepared inside the mammary fat pad was injected at 4×10^4 cells/40 μl/head.
# A certain period of time after cell inoculation of the tumor grafts of the mice, the tumor volume was measured for animals with no abnormalities in the health condition of the animals, and the subjects were selected so that the average of each group reached less than 70-100 mm^3, and the selected animals were assigned as evenly as possible based on tumor volume and body weight, each group including 10 animals.
# Docetaxel was dissolved in 100% DMSO, and then the volume was adjusted with 5% of DMSO, 30% of PEG300, 5% of Tween 80, and 60% of distilled water for injection (DMSO PEG300: Tween 80: distilled water for injection=5%: 30%: 5%: 60% (v:v:v:v)) and prepared.
# The Anti-PD-L1 antibody was prepared and administered using 1×PBS in consideration of dosage amount and volume. […]
# The tumor volume before administration of each subject was set as the value measured at the time of grouping, and the anti-tumor efficacy was evaluated as compared with the vehicle control. […]
# 4T1 cells [2] = assay: mGI-101 and Abemaciclib in 4T1 allotransplanted tumor model; type: in vivo, BALB/c mice; details: 11 mice per group
# Protocol: 4T1 cells were purchased from ATCC (USA) and cultured in RPMI1640 medium (Gibco) containing 10% FBS (Gibco) and 1% antibiotic/antifungal agent (Gibco). The cultured cells were harvested using trypsin (Gibco) and then suspended in PBS. In order to establish an allotransplanted tumor model, 1×10^5 of 4T1 cells were subcutaneously injected into the back of BALB/c female mice (8-week-old).
# A certain period of time after cell inoculation of the tumor grafts of the mice, the tumor volume was measured for animals with no abnormalities in the health condition of the animals, and the mice were randomly selected and assigned, each group including 11 mice.
# The death of the mouse, the type of general symptoms, the date of onset, and the severity of symptoms were observed once a day during the test period, and recorded for each subject.
# The tumor volume before administration of each subject was set as the value measured at the time of grouping, and the anti-tumor efficacy was evaluated as compared with the vehicle control.
# All statistical calculations were performed using Prism 8.0 (Graph Pad Software Inc, USA). The comparison of tumor volume measurements was made through two-way analysis of variance followed by Tukey's multiple comparison test. A p value of less than 0.05 was considered significant.
# HCT116 cells = assay: Cancer cell killing, GI-101 and Pertuzumab, HCT116 with NK cells; type: cell-based, human; details: GI-101 0.4-100 nM, Pertuzumab 16.9 nM, 24 hours
# Description: This experiment was to evaluate the effect of killing cancer cells by treating HCT116 cells (human colon cancer cells) with the test substance GI-101 alone or in combination with Pertuzumab substance in an in vitro environment.
# as §1, with “HCT116 cells” for “MDA-MB-231 cells”, “in McCoy's 5A” for “in RPMI1640”, “medium (ATCC)” for “medium (Gibco)”
# as §2
# [3] = 4T1, end of the test, 10 animals per group
compound,measurement,setting,value
"Cc1ccc2c(=O)c3cccc(CC(=O)O)c3oc2c1C [DMXAA, reference compound]",survival rate,MC38 cells,60%
"CN(C)C(=O)c1cc2cnc(Nc3ccc(N4CCNCC4)cn3)nc2n1C1CCCC1 [Ribociclib, reference compound]",effect of killing cancer cells,MDA-MB-231 cells,excellent effect of killing cancer cells
CC(=O)O[C@@]12CO[C@@H]1C[C@H](O)[C@@]1(C)C(=O)[C@H](O)C3=C(C)[C@@H](OC(=O)[C@H](O)[C@@H](NC(=O)OC(C)(C)C)c4ccccc4)C[C@@](O)([C@@H](OC(=O)c4ccccc4)[C@H]21)C3(C)C [Docetaxel],number of mice with tumor growth inhibition rate of 30% or more,4T1 cells [1]; [3],5 mice
same,number of mice with tumor growth inhibition rate of 50% or more,4T1 cells [1]; [3],1 mice
same,anticancer effect (tumor size) compared with the control,"4T1 cells [1]; day 14, Docetaxel 15 mg/kg, mGI-101 3 mg/kg, aPD-L1 10 mg/kg i.p. QW",statistically significant anticancer effect
"CCN1CCN(Cc2ccc(Nc3ncc(F)c(-c4cc(F)c5nc(C)n(C(C)C)c5c4)n3)nc2)CC1 [Abemaciclib, reference compound]",number of mice with tumor growth inhibition rate of 30% or more,4T1 cells [2],4 mice
same,number of mice with tumor growth inhibition rate of 50% or more,4T1 cells [2],1 mice
same,number of mice with tumor growth inhibition rate of 80% or more,4T1 cells [2],1 mice
Pertuzumab: Her2 inhibitor [reference compound],effect of killing cancer cells,HCT116 cells,effect of killing cancer cells was not shown
